Data from patent US20250084095A1, “Aminopyrimidine Derivatives as Cyclin-Dependent Kinase Inhibitors” (Accutar Biotechnology Inc., priority 2023, published 2025).

Legend:
[1] = tested on: Phospho-Rb (Ser807/811) in MCF7 cells; assay: Phospho-Rb expression inhibition in MCF7 cells quantified by in cell Western; assay type: cell-based, human; conditions: Homo sapiens, MCF7, 24 h, 24 hours, in cell Western, read-out: MCF7 pRb IC50
Description: MCF7 cells were obtained from American Type Culture Collection (ATCC, HTB-22). MCF7 cells were plated in 96-well plates (VWR #10062-900, or Coming #3904) in 90 μL culture medium at a density of 20,000 cells/well in the DMEM growth medium containing 10%/FBS and 1% Penicillin Streptomycin, and then incubated at 37° C. overnight. The following day, the test compound was administered to the cells by using 1000× compound stock solution prepared in DMSO at various concentrations. 1000× compound stock solution was first diluted in culturing medium to 10×, then 10 μL compound medium was added to each well in the cell plates. After administration of the compound, the cells were then incubated at 37° C. for 24 h. Upon completion, the cells were washed with PBS briefly. 150 μL/well of 4% formaldehyde was added and the plates were incubated at room temperature for 20 min. The cells were washed with PBS briefly, and permeabilized with 150 µL/well of ice cold 100% methanol for 10 min. The cells were washed with PBS briefly and blocked with 100 µL/well LI-COR blocking buffer for 1 h at room temperature with gentle shaking. The cells were incubated overnight at 4° C. with 50 μL primary antibody rabbit anti-Phospho-Rb (Ser807/811) (1: 500, Cell Signaling, #8516) and anti-Rb (1:200, Santa Cruz, sc-73598) diluted in Intercept Blocking Buffer (LI-COR, #927-60001) containing 0.1% Tween 20. The next day, the cells were washed with 200 μL PBS containing 0.1% Tween 20, 5×5 mins at room temperature with gentle shaking, and incubated with 50 μL secondary antibody, IRDye® 800CW Goat anti-Rabbit IgG (1:1000, LI-COR, #926-32211) and FRDye® 680RD Goat anti-Mouse IgG (1:1000, LI-COR, #926-68070), in LI-COR […] blocking buffer with 0.2% Tween 20 for 1 h at room temperature with gentle shaking. The cells were washed with 200 μL PBS containing 0.1% Tween 20, 5×5 min at room temperature with gentle shaking. The cells were washed with PBS for 5 mins. 100 μL fresh PBS was added to each well and the plates were imaged on a LI-COR Odyssey CLX plate reader.
MCF7 cells were obtained from American Type Culture Collection (ATCC, HTB-22). SW1573-CDK6 KO and SW1573-CDK4 KO cells were generated by the CRISPR-Cas9 technology. All cells were plated in 96-well plates (VWR #10062-900, or Corning #3904) in 90 uL culture medium at a density of 20,000 cells/well in the respective growth medium containing 10% FBS and 1% Penicillin Streptomycin, and then incubated at 37° C. overnight. The following day, the test compound was administered to the cells by using 1000× compound stock solution prepared in DMSO at various concentrations. 1000× compound stock solution was first diluted in culturing medium to 10×, then 10 uL compound medium was added to each well in the cell plates. After administration of the compound, the cells were then incubated at 37° C. for 24 hours. Upon completion, the cells were washed with PBS briefly. 150 uL/well of 4% formaldehyde was added and the plates were incubated at room temperature for 20 mins. The cells were washed with PBS briefly, and permeabilized with 150 uL/well of ice cold 100% methanol for 10 mins. The cells were washed with PBS briefly and blocked with 100 uL/well LI-COR blocking buffer for 1 hr at room temperature with gentle shaking. The cells were incubated overnight at 4° C. with 50 uL primary antibody rabbit anti-Phospho-Rb (Ser807/811) (1: 500, Cell Signaling, #8516) and anti-Rb (1:200, Santa Cruz, sc-73598) diluted in Intercept Blocking Buffer (LI-COR, #927-60001) containing 0.1% Tween 20. The next day, the cells were washed with 200 uL PBS containing 0.1% Tween 20, 5×5 mins at room temperature with gentle shaking, and incubated with 50 uL secondary antibody, IRDye® 800CW Goat anti-Rabbit IgG (1:1000, LI-COR, #926-32211) and IRDye®680RD Goat anti-Mouse IgG (1:1000, LI-COR, #926-68070), in LI-COR blocking buffer with 0.2% Tween 20 for 1 hr at room temperature with gentle shaking. […]

22RV1 cells = assay: Cell growth inhibition of 22RV1 cells (CellTiter-Glo); assay type: cell-based; conditions: Homo sapiens, 22Rv1, 120 h, 5 days, CellTiter-Glo, read-out: 22RV1 Cell Growh GI50
Description: For cell growth assay, 22RV1 (ATCC, CRL-2505) cells were seeded in 96-well plates at 1000 cells/well in 90 μl of RPMI1640 growth medium containing 20% FBS and 1% Penicillin Streptomycin, and then incubated at 37° C. overnight. The following day, the test compound was administered to the cells by using 1000× compound stock solution prepared in DMSO at various concentrations. 1000× compound stock solution was first diluted in culturing medium to 10×, then 10 uL compound medium was added to each well in the cell plates. After administration of the compound, the cells were then incubated at 37° C. for 5 days. Upon completion, the plates were equilibrated at room temperature for approximately 10 min. 100 μl of CellTiter-Glo® Reagent (Promega) was added to each well. The plates were then incubated at room temperature for 10 min and luminescence was recorded by EnSpire plate reader (PerkinElmer).
22RV1 cells were obtained from American Type Culture Collection (ATCC, CRL-2505). 22RV1 cells were seeded in 96-well plates at 1000 cells/well in 90 μL of RPMI1640 growth medium containing 10% FBS and 1% Penicillin Streptomycin, and then incubated at 37° C. overnight. The following day, the test compound was administered to the cells by using 1000× compound stock solution prepared in DMSO at various concentrations. […], then 10 uL compound medium was added to each well in the cell plates. After administration of the compound, the cells were then incubated at […] for 5 days. Upon completion, the plates were equilibrated at room temperature for approximately 10 minutes. 100 μL of CellTiter-Glo® Reagent (Promega) was added to each well. The plates were then incubated at room temperature for 10 minutes and luminescence was recorded by EnSpire plate reader (PerkinElmer).

Row | Structure (SMILES) | IC50 [1] [nM] | GI50 (22RV1 cells) [nM]
1 | CC(C)n1c(-c2cn[nH]c2)nc2c(F)cc(-c3nc(N[C@@H]4C[C@H]5CO[C@H](O5)[C@H]4O)ncc3Cl)cc21 [Compound 186, (1S,3R,4S,5R)-3-((5-chloro-4-(4-fluoro-1-isopropyl-2-(1H-pyrazol-4-yl)-1H-benzo[d]imidazol-6-yl)pyrimidin-2-yl)amino)-6,8-dioxabicyclo[3.2.1]octan-4-ol] | 150 to 1000 | 120 to 450
2 | C[C@H]1COc2c(-c3nc(N[C@@H]4C[C@H]5CO[C@H](O5)[C@H]4O)ncc3Cl)cc(F)c3c2N1CCO3 [Compound 174, (1S,3R,4S,5R)-3-((5-chloro-4-((S)-9-fluoro-4-methyl-2,3,4,5-tetrahydro-1,6-dioxa-3a-azaphenalen-7-yl)pyrimidin-2-yl)amino)-6,8-dioxabicyclo[3.2.1]octan-4-ol] | 40 to 150 | 120 to 450
3 | Cc1c(-c2nc(N[C@@H]3C[C@H]4CO[C@H](O4)[C@H]3O)ncc2F)sc2cc(CN3[C@@H](C)COC[C@@H]3C)n(C)c(=O)c12 [Compound 215, 6-(((3S,5S)-3,5-dimethylmorpholino)methyl)-2-(5-fluoro-2-(((1S,3R,4S,5R)-4-hydroxy-6,8-dioxabicyclo[3.2.1]octan-3-yl)amino)pyrimidin-4-yl)-3,5-dimethylthieno[3,2-c]pyridin-4(5H)-one] | 40 to 150 | 450 to 3000
4 | CCCc1cn(C)c(=O)c2ccc(-c3nc(N[C@@H]4C[C@H]5CO[C@H](O5)[C@H]4O)ncc3Cl)cc12 [Compound 294, 6-(5-chloro-2-(((1S,3R,4S,5R)-4-hydroxy-6,8-dioxabicyclo[3.2.1]octan-3-yl)amino)pyrimidin-4-yl)-2-methyl-4-propylisoquinolin-1(2H)-one] | 150 to 1000 | 450 to 3000
5 | CC(C)n1c(-c2cnn(C)c2)nc2c(F)cc(-c3nc(N[C@@H]4C[C@H]5CO[C@H](O5)[C@H]4O)ncc3Cl)cc21 [Compound 187, (1S,3R,4S,5R)-3-((5-chloro-4-(4-fluoro-1-isopropyl-2-(1-methyl-1H-pyrazol-4-yl)-1H-benzo[d]imidazol-6-yl)pyrimidin-2-yl)amino)-6,8-dioxabicyclo[3.2.1]octan-4-ol] | 150 to 1000 | 120 to 450
6 | CC(C)n1c(C2CC(O)C2)nc2c(F)cc(-c3nc(N[C@@H]4C[C@H]5CO[C@H](O5)[C@H]4O)ncc3Cl)cc21 (stereo partly drawn) [Compound 244, (1S,3R,4S,5R)-3-((5-chloro-4-(4-fluoro-2-((1s,3S)-3-hydroxycyclobutyl)-1-isopropyl-1H-benzo[d]imidazol-6-yl)pyrimidin-2-yl)amino)-6,8-dioxabicyclo[3.2.1]octan-4-ol] | 40 to 150 | 120 to 450
7 | CC(C)(O)c1cnc2c(F)cc(-c3nc(N[C@@H]4C[C@H]5CO[C@H](O5)[C@H]4O)ncc3Cl)cc2c1 [Compound 253, (1S,3R,4S,5R)-3-((5-chloro-4-(8-fluoro-3-(2-hydroxypropan-2-yl)quinolin-6-yl)pyrimidin-2-yl)amino)-6,8-dioxabicyclo[3.2.1]octan-4-ol] | 150 to 1000 | 120 to 450
8 | Cc1c(CN)n(C(C)C)c2cc(-c3nc(N[C@@H]4C[C@H]5CO[C@H](O5)[C@H]4O)ncc3F)ccc2c1=O [Compound 193, 2-(aminomethyl)-7-(5-fluoro-2-(((1S,3R,4S,5R)-4-hydroxy-6,8-dioxabicyclo[3.2.1]octan-3-yl)amino)pyrimidin-4-yl)-1-isopropyl-3-methylquinolin-4(1H)-one] | 150 to 1000 | 120 to 450
9 | Cc1c(-c2nc(N[C@@H]3C[C@H]4CO[C@H](O4)[C@H]3O)ncc2Cl)sc2c(C(C)C)cn(C(F)F)c(=O)c12 [Compound 231, 2-(5-chloro-2-(((1S,3R,4S,5R)-4-hydroxy-6,8-dioxabicyclo[3.2.1]octan-3-yl)amino)pyrimidin-4-yl)-5-(difluoromethyl)-7-isopropyl-3-methylthieno[3,2-c]pyridin-4(5H)-one] | 40 to 150 | 450 to 3000
10 | CC(C)n1c(C(C)(C)O)nc2c(F)cc(-c3nc(N[C@@H]4C[C@H]5CO[C@H](O5)[C@H]4O)ncc3C(F)F)cc21 [Compound 29, (1S,3R,4S,5R)-3-((5-(difluoromethyl)-4-(4-fluoro-2-(2-hydroxypropan-2-yl)-1-isopropyl-1H-benzo[d]imidazol-6-yl)pyrimidin-2-yl)amino)-6,8-dioxabicyclo[3.2.1]octan-4-ol] | 150 to 1000 | 450 to 3000
11 | Cc1c(C(=O)N2[C@@H](C)COC[C@@H]2C)n(C(C)C)c2cc(-c3nc(N[C@@H]4C[C@H]5CO[C@H](O5)[C@H]4O)ncc3Cl)ccc2c1=O [Compound 213, 7-(5-chloro-2-(((1S,3R,4S,5R)-4-hydroxy-6,8-dioxabicyclo[3.2.1]octan-3-yl)amino)pyrimidin-4-yl)-2-((3S,5S)-3,5-dimethylmorpholine-4-carbonyl)-1-isopropyl-3-methylquinolin-4(1H)-one] | > 1000 | > 3000
12 | Cc1c(CN2CC[C@H](O)C2)n(C(C)C)c2cc(-c3nc(N[C@@H]4C[C@H]5CO[C@H](O5)[C@H]4O)ncc3F)ccc2c1=O [Compound 207, 7-(5-fluoro-2-(((1S,3R,4S,5R)-4-hydroxy-6,8-dioxabicyclo[3.2.1]octan-3-yl)amino)pyrimidin-4-yl)-2-(((S)-3-hydroxypyrrolidin-1-yl)methyl)-1-isopropyl-3-methylquinolin-4(1H)-one] | 40 to 150 | ≤ 120
13 | [2H][C@H]1[C@@H](Nc2ncc(Cl)c(-c3cc(F)c4nc(C(C)(C)O)n(C(C)C)c4c3)n2)[C@H](O)[C@@H]2OC[C@H]1O2 [Compound 2, (1S,2S,3R,4S,5R)-3-((5-chloro-4-(4-fluoro-2-(2-hydroxypropan-2-yl)-1-isopropyl-1H-benzo[d]imidazol-6-yl)pyrimidin-2-yl)amino)-6,8-dioxabicyclo[3.2.1]octan-2-d-4-ol] |  | ≤ 120
